ChEMBL document CHEMBL3813628, “Molecular similarity guided optimization of novel Nrf2 activators with 1,2,4-oxadiazole core” (Bioorg Med Chem, 2016)
Active and inactive are the calls of the source. The rule behind the calls is not given here.

How the values were obtained:
[1] = molecular target: T1, Nuclear factor erythroid 2-related factor 2 (Homo sapiens) (UniProt Q16236); assay: Activation of Nrf2 in human HepG2 cells at 40 uM incubated for 12 hrs by ARE-driven luciferase reporter gene assay relative to control; assay type: cell-based
T1 sequence (whole entry): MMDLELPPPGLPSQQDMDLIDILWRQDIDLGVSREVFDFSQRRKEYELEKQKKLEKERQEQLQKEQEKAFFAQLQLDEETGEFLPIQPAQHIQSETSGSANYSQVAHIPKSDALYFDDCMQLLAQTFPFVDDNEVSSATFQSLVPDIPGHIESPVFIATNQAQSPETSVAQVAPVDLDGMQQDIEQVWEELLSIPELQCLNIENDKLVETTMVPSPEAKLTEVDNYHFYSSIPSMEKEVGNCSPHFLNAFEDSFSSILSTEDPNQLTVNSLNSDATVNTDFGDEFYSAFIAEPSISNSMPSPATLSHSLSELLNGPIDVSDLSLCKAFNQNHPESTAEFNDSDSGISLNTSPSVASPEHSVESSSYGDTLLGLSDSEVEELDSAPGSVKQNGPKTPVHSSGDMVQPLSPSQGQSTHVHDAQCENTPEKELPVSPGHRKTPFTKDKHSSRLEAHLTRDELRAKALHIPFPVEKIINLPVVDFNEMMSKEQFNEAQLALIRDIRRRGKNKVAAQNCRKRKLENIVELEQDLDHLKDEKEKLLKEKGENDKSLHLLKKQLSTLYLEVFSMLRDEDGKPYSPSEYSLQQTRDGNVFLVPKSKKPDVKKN

[2] = molecular target: T1, Nuclear factor erythroid 2-related factor 2 (Homo sapiens); assay: Activation of Nrf2 in human HepG2 cells at 5 uM incubated for 12 hrs by ARE-driven luciferase reporter gene assay relative to control; assay type: cell-based
[3] = molecular target: T1, Nuclear factor erythroid 2-related factor 2 (Homo sapiens); assay: Activation of Nrf2 in human HepG2 cells at 80 uM incubated for 12 hrs by ARE-driven luciferase reporter gene assay relative to control; assay type: cell-based
[4] = molecular target: T1, Nuclear factor erythroid 2-related factor 2 (Homo sapiens); assay: Activation of Nrf2 in human HepG2 cells at 160 uM incubated for 12 hrs by ARE-driven luciferase reporter gene assay relative to control; assay type: cell-based
[5] = molecular target: T1, Nuclear factor erythroid 2-related factor 2 (Homo sapiens); assay: Activation of Nrf2 in human HepG2 cells at 0.2 uM incubated for 12 hrs by ARE-driven luciferase reporter gene assay relative to control; assay type: cell-based
[6] = molecular target: T1, Nuclear factor erythroid 2-related factor 2 (Homo sapiens); assay: Activation of Nrf2 in human HepG2 cells at 2 uM incubated for 12 hrs by ARE-driven luciferase reporter gene assay relative to control; assay type: cell-based
[7] = molecular target: T1, Nuclear factor erythroid 2-related factor 2 (Homo sapiens); assay: Activation of Nrf2 in human HepG2 cells at 0.02 uM incubated for 12 hrs by ARE-driven luciferase reporter gene assay relative to control; assay type: cell-based
[8] = molecular target: T1, Nuclear factor erythroid 2-related factor 2 (Homo sapiens); assay: Activation of Nrf2 in human HepG2 cells at 20 uM incubated for 12 hrs by ARE-driven luciferase reporter gene assay relative to control; assay type: cell-based
[9] = test system: L02; assay: Cytoprotective activity against H2O2-induced cytotoxicity in human L02 cells assessed as cell viability pretreated at 20 uM for 24 hrs followed by H2O2 challenge for 12 hrs by MTT assay (reference value: 50%); assay type: functional
[10] = Cytotoxicity against human NCM460 cells assessed as cell viability at low to medium concentration after 24 hrs by MTT assay relative to control; assay type: cell-based; conditions: ncm460, 24 h
[11] = test system: NCM460; assay: Cytoprotective activity against H2O2-induced cytotoxicity in human NCM460 cells assessed as cell viability pretreated at 20 uM for 24 hrs followed by H2O2 challenge for 12 hrs by MTT assay (reference value: 50%); assay type: functional
[12] = Cytotoxicity against human L02 cells assessed as cell viability at low to medium concentration after 24 hrs by MTT assay relative to control; assay type: cell-based; conditions: l02, 24 h
[13] = test system: PC-12; assay: Cytoprotective activity against H2O2-induced cytotoxicity in rat PC12 cells assessed as cell viability pretreated at 20 uM for 24 hrs followed by H2O2 challenge for 12 hrs by MTT assay (reference value: 50%); assay type: functional
[14] = Cytotoxicity against rat PC12 cells assessed as cell viability at low to medium concentration after 24 hrs by MTT assay relative to control; assay type: cell-based; conditions: pc-12, 24 h

Compound | fold change (FC) [1] | fold change (FC) [2] | fold change (FC) [3] | fold change (FC) [4] | fold change (FC) [5] | fold change (FC) [6] | fold change (FC) [7] | fold change (FC) [8] | other results
CCCn1c(=O)[nH]c2cc(-c3noc(C4CCCC4)n3)ccc21 | 7.03 | 3.2 | 6.01 | 8.4 | 4.19 | 4.86 | 3.71 | 7.27 | 
CN(C)c1cccc(-c2nc(-c3ccc4c(c3)[nH]c(=O)n4C3CCCC3)no2)c1 | 8.89 | 1.94 | 3.08 | 3.06 | 3.53 | 3.64 | 2.59 | 5.38 | 
CCc1cc(O)nc(SCc2nc(-c3ccc(Cl)c(F)c3)no2)n1 |  | 1.38 |  |  |  |  |  | 4.28 | 
CCc1ccc(-c2nc(-c3ccc4oc(C)nc4c3)no2)cc1 |  | 2.36 |  |  |  |  |  | 4.52 | 
Cc1nc2cc(-c3noc(Cc4ccc(F)cc4)n3)ccc2o1 |  | 1.73 |  |  |  |  |  | 3.2 | 
CCOc1ccc(-c2nc(-c3ccc4[nH]c(=O)n(C5CCCC5)c4c3)no2)cc1OCC |  | 1.31 |  |  |  |  |  | 3.38 | 
CC(C)n1c(=O)[nH]c2cc(-c3noc(/C=C/c4ccccc4)n3)ccc21 |  | 3.19 |  |  |  |  |  | 5.19 | 
CN(C)C=O [DIMETHYLFORMAMIDE] | 2.97 |  |  |  | 1 | 1.1 | 0.82 | 1.65 | Activity [9]: Active; Activity [10]: Non-toxic; Activity [11]: Active; Activity [12]: Non-toxic; Activity [13]: Active; Activity [14]: Non-toxic
Cc1nc2cc(-c3noc(/C=C/c4ccccc4)n3)ccc2o1 | 6.78 | 4.64 | 7.31 | 7.64 | 3.14 | 4.11 | 2.26 | 5.46 | 
CCOc1ccc(-c2nc(-c3ccc(-c4csc(C)n4)cc3)no2)c(CC)c1 |  | 1.09 |  |  |  |  |  | 3.08 | 
